Source: patent US20240384344A1, “METHOD FOR LABELING CELLS” (RIKEN, priority 2022, published 2024)

Columns and labels:
[1] = biological target: mouse E-cadherin (CDH1) (mouse) (UniProt P09803); experiment: flow cytometry, undifferentiated mouse R1 ES cells, biotinylated anti-CDH1 antibody then PE-conjugated TotalSeq streptavidin
[2] = biological target: mouse E-cadherin (CDH1) (mouse) (UniProt P09803); experiment: flow cytometry, differentiated R1 ES cells (only a part of them expresses CDH1), biotinylated anti-CDH1 antibody then PE-conjugated TotalSeq streptavidin
[3] = system: undifferentiated mouse ES cells (R1 line); experiment: Flow cytometry of labeling efficiency (PE-positive cells), USB method vs Ab method; type: cell-based; details: TotalSeq PE streptavidin detection
Description: Single cells containing 0.5-2×10^6 […] CELLs prepared in “3. […] After incubation on ice, 3 mL ice-cold PBS containing 3% FBS was added to the reaction, and the cells were centrifuged at 4° C., 300 g for 5 minutes. The cells were further washed twice with Cell Staining Buffer (BioLegend, Inc., 420201), and then kept on ice until barcoded oligo DNA binding in the next step. Single cells containing 0.5-2×10^6 […] CELLs prepared in “3. […] An ice-cold primary antibody solution (0.05 μg/mL biotinylated CDC324 [E-cadherin] rat monoclonal antibody [Thermo Fisher ScientificTM, 13-3249-82]) was mixed with the cell suspension solution, and the cell was incubated on ice for 30 minutes. Next, the cells were washed three times with ice-cold Cell Staining Buffer, and then kept on ice until binding of barcoded DNA. […] The cell suspension solution was filtered through 40 μm cell strainer, the same number of cells from each sample was gathered in a single tube and used for cell trapping and cDNA synthesis using a BD RhapsodyTM apparatus. First, by the same method as in the above 1-3, SINGLE CELL suspension solutions of undifferentiated ES cells and differentiated ES cells were prepared. […] The stained cells were analyzed by flow cytometry using EC800 Cell Analyzer (Sony Corporation), Cyto FLEX flow cytometer (Beckman Coulter, Inc.), or […] flow cytometer (BD Biosciences). […]

[4] = system: differentiated ES cells (R1, embryoid body formation); experiment: as above; type: cell-based, mouse; details: TotalSeq PE streptavidin detection
Description: After removing the feeder cells, 1×10^4 ES cells were seeded in 100 μL differentiation medium (GMEM supplemented with 15% FBS, 0.11 mg/mL sodium pyruvate, 0.1 mM 2-mercaptoethanol, 1×non-essential amino acid, and 1×GlutaMAX supplement) in a U-bottom 96-well low cell attachment plate (Nunclon Sphera 96-Well U-Shaped-Bottom Microplate; Thermo Fisher ScientificTM, 174925), and cultured for 24 hours. Spheroids made in the plate were transferred to a 90 mm, low cell attachment culture dish (Nunclon Sphera 90 mm dish, 174945), and cultured for further 4 days to form embryoid bodies (EBs). The EBs were washed three times with PBS, dissociated into […] CELLs (group of single cells) using 0.25% trypsin, the cells were seeded on a gelatin-treated culture dish, and cultured for 7 days to induce further differentiation. Single cells containing 0.5-2×10^6 […] CELLs prepared in “3. […] After incubation on ice, 3 mL ice-cold PBS containing 3% FBS was added to the reaction, and the cells were centrifuged at 4° C., 300 g for 5 minutes. The cells were further washed twice with Cell Staining Buffer (BioLegend, Inc., 420201), and then kept on ice until barcoded oligo DNA binding in the next step. […] The stained cells were analyzed by flow cytometry using EC800 Cell Analyzer (Sony Corporation), Cyto FLEX flow cytometer (Beckman Coulter, Inc.), or […] flow cytometer (BD Biosciences). […]

[5] = system: undifferentiated ES cells; experiment: Cell viability test (colony formation); type: cell-based, mouse
Description: Undifferentiated ES cells were treated with 100 μg/mL S-NHS-biotin (10-fold the concentration used for multiplex scRNA-seq) and TotalSeq® PE streptavidin, and 3×10^3 cells were seeded on a 3.5 cm, gelatin-treated culture dish. Concurrently, the same number of untreated cells were seeded. After 5-day culture, the cells were stained with hematoxylin, and the colony formation ratios of untreated control and treated sample were examined.
A series of experimental operations by the USB method has a possibility to compromise cell states and growth. To examine this possibility, ES cells were treated by the USB method, and seeded on a culture dish to measure colony formation ability (FIG. 7). As a result, even though cells were treated with S-NHS-biotin at a concentration 10-fold the concentration used in the USB method (0.1 mg/mL), the difference of colony formation rates between the control group without labeling and the USB group were not observed. Consequently, the USB method was concluded to not change the cell viability.

[6] = Storage stability of S-NHS-biotin stock solution; type: physicochemical; details: stock solution at −80° C.
Description: A S-NHS-biotin stock solution was prepared by dissolving EZ-Link sulfo-NHS-biotin (Thermo Fisher Scientific™, 21217) in PBS at a concentration of 10 mg/mL, and dispensed and stored at […] until use.

[7] = system: mouse growth plate chondrocytes; experiment: Flow cytometry of labeled growth plate chondrocytes; type: cell-based; details: mouse growth plate chondrocytes (FIG. 11)
Description: (§1) Specifically, healthy F344 rat lungs were cut into 0.5 mm^2 with razor blade, digested in a Liberase solution [RPMI-1640 (Natalai Tesque)] added with 10% FBS, 10 mM HEPES pH 7.2-7.4, 0.25 mg/ml Liberase™ (F. Hoffmann-La Roche Ltd.), and 2000 U/mL DNase I (Merck KGaA) for 60 minutes at 37° C. to prepare a SINGLE CELL suspension solution. Dead cells were removed by Percoll. Alternatively, growth plate cartilage from proximal tibia was collected from 3-week-old mice and cut finely into 1 to 2 mm pieces. Next, the cut pieces were dispersed into SINGLE CELLs (group of single cells) with Liberse™ (F. Hoffmann-La Roche Ltd.) solution for 120 to 210 minutes while continuously agitating.
(§2) Reagents for cell staining were biotinylated CDC324 (E-cadherin) rat monoclonal antibody (Thermo Fisher Scientific™, 13-3249-82), TotalSeq® PE streptavidin (BioLegend, Inc., 405251), PerCP-Cy5.5 anti-rat CD45 (Bio-Rad Laboratories, Inc., clone OX-1), PE anti-rat CD31 (Bio-Rad Laboratories, Inc., Clone TLD-3A12), streptavidin-APC (BioLegend, Inc., 405207), APC rat anti-mouse CD45 (BD Biosciences, 559864), and PE anti-mouse H-2 antibody (BioLegend, Inc., 125505).
(§3) The stained cells were analyzed by flow cytometry using EC800 Cell Analyzer (Sony Corporation), Cyto FLEX flow cytometer (Beckman Coulter, Inc.), or FACS Arria II flow cytometer (BD Biosciences).

[8] = system: rat lung cells (CD31 positive, CD45 positive, double negative); experiment: Flow cytometry of USB labeling of fractionated lung cells (APC-labeled streptavidin); type: cell-based; details: CD45 positive and double negative fractions (FIG. 12)
Description: as §1, §2, §3

Chain of UniProt P09803 (P09803 157-884): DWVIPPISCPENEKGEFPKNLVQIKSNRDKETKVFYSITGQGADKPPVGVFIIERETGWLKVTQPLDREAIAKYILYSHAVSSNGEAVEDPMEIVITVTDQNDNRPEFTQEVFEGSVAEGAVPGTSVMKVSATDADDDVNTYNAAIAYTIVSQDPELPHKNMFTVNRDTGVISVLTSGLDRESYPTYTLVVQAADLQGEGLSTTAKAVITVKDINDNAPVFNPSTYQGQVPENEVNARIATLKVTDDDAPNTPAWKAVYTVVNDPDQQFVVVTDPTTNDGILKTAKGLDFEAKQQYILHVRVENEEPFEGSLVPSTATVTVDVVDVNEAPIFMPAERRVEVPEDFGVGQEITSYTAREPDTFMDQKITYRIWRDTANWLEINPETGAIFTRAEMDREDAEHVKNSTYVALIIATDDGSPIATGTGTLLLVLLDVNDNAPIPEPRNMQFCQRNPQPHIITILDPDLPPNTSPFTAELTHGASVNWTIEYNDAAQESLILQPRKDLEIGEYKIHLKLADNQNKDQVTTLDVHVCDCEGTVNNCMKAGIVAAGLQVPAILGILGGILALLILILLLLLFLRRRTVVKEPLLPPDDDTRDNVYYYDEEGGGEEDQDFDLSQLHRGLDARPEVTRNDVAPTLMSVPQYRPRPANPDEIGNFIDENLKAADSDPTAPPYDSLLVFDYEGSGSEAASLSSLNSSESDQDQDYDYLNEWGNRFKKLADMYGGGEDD

| Substance | percent PE-positive cells [1] [%] | percent PE-positive cells [2] [%] | percentage of PE-positive cells [3] [%] | percentage of PE-positive cells [4] [%] | difference of colony formation rates between the control group without labeling and the USB group ([5]; S-NHS-biotin 0.1 mg/mL (10-fold the concentration used in the USB method), 5-day culture) | effect on viability of undifferentiated ES cells ([5]; S-NHS-biotin treated vs control untreated cells (FIG. 7)) | time stock solution is stable [6] | labeling/staining of chondrocytes [7] | labeling of fractionated lung cells [8] |
| --- | --- | --- | --- | --- | --- | --- | --- | --- | --- |
| biotinylated CDC324 [E-cadherin] rat monoclonal antibody [Thermo Fisher Scientific, 13-3249-82] | 87.8 | 9.9 |  |  |  |  |  |  |  |
| sulfo-N-hydroxysuccinimide-biotin [S-NHS-biotin] |  |  | 99.6 | 96.4 | not observed | does not affect the viability | more than 1 year | efficiently labeled | All fractionated cells were found to have been labeled |
